Measurements reported in PMC10541411 (Nature Communications, 2023).

How the values were obtained:
53BP1^TT = biological target: T1, 53BP1^TT (Homo sapiens, UniProt Q12888); assay: Sedimentation velocity analytical ultracentrifugation (AUC); conditions: 53BP1TT 20 μM, UNC3474 10-200 μM
T1 construct: The tandem Tudor domain of 53BP1 (53BP1^TT, residues 1481–1603) was purified as previously described; made in house; host or cells: E. coli (only for the SAXS sample)
Experimental: The AUC experiments were performed at 20 °C in 20 mM sodium phosphate, pH 7.5, with 50 mM NaCl. 53BP1^TT was at a concentration of 20 μM. Measurements were recorded on an Optima analytical ultracentrifuge (Beckman Coulter) with an An-50 Ti analytical 8-place rotor using absorbance detection at 280 nm. Sample-filled AUC cells assembled with 12-mm charcoal-filled Epon centerpieces and quartz windows were subjected to 3 h of equilibration at 20 °C under vacuum prior to initiating the experiments at 50,000 rpm (corresponding to 182,000 × g at the cell center and 201,600 × g at the cell bottom) with continuous data acquisition for 20 h (200 scans) at 20 °C. The AUC data were analyzed with the c(s) model in SEDFIT[66] using a partial specific volume of 0.7335 mL/g.

53BP1^TT WT = 53BP1^TT WT (Homo sapiens, UniProt Q12888); assay: 1H-15N HSQC NMR titration of 15N-labeled wild-type 53BP1TT; assay type: binding; design: The tandem Tudor domain of 53BP1 (53BP1^TT, residues 1481–1603) was purified as previously described; made in house; host or cells: E. coli (only for the SAXS sample); conditions: 15N-labeled WT 53BP1TT
Experimental: All NMR data were collected at 25 °C on a 700 MHz Bruker Avance III spectrometer equipped with a cryoprobe. Data were processed and analyzed with NMRPipe[54] and NMRViewJ[55],[56].
To probe chemical shift perturbations, ^1H-^15N HSQC spectra were acquired on the following samples: 0.2 mM ^15N-labeled 53BP1^TT WT and 53BP1^TT-PN in 25 mM sodium phosphate, pH 7.0, 1.5 mM NaN3, 0.3 mM DSS, 90% H2O/10% D2O, free and incrementally titrated with various non-labeled inhibitors (UNC1078, UNC1118, UNC2170, UNC2991, UNC3474), as well as with H4KC20me2 and p53K382me2 peptides. Chemical shift perturbations (Δδ) were calculated using the Eq. (1):1 Δδ=(ΔN/5)^2+ΔH^2 where ΔN and ΔH are the corresponding differences in ^15N and ^1H chemical shifts between the bound and free forms of 53BP1.

[1] = biological target: T2, 53BP1^TT (tandem Tudor domain of 53BP1, residues 1481–1603) (Homo sapiens, UniProt Q12888); assay: Isothermal titration calorimetry (ITC) of small molecules with 53BP1TT; assay type: binding; conditions: 25 °C, 50 mM Tris-HCl pH 7.5, 50 mM NaCl, one-site model; read-out: Kd (apparent, ITC)
T2 construct: The tandem Tudor domain of 53BP1 (53BP1^TT, residues 1481–1603) was purified as previously described; made in house; host or cells: E. coli (only for the SAXS sample)
Experimental: The ITC measurements were performed at 25 °C using a MicroCal iTC200 calorimeter. 53BP1^TT and the small molecules (UNC2991, UNC3351, UNC3474) were in 50 mM Tris-HCl, pH 7.5, 50 mM NaCl. In a typical run, 53BP1^TT was in the reaction cell at a concentration of 150 to 160 μM while the small molecule, in the titration syringe at a concentration of 0.8–2 mM, was delivered as 2 μL injections every 3 min. The titrations were paired with control experiments for heat of dilution. The titration of 53BP1^TT with UNC1118 was performed using a MicroCal VP-ITC calorimeter. ITC data were fitted to a one-site model using a Levenberg-Marquardt non-linear regression algorithm programmed in the Origin 7.0 software.
Supplementary Figure 1 | Interaction of 53BP1TT with small molecules probed using isothermal titration calorimetry (ITC) and small-angle X-ray scattering (SAXS). a, ITC of the interaction of UNC2991, UNC3351 and UNC3474 with 53BP1TT. Raw titration data and integrated heat measurements are shown. Indicated apparent Kds with associated standard deviations were determined by nonlinear least-squares analysis.
1.33 and 2 mg/mL with an exposure time of 0.5 s, without and with 10-fold molar excess of UNC1118 or UNC3474. The error bars in the scattering curves were generated using PRIMUS in the data analysis software ATSAS 2.4.2 and represent mean ± standard deviation calculated from signal intensity scaling and merging for the three different 53BP1TT concentrations. The Guinier plots, dimensionless Kratky plots and pair distance distribution functions derived from the SAXS data are shown. Also shown are the crystal structures of 53BP1TT and 53BP1TT-UNC3474 overlaid to the corresponding SAXS-based ab initio molecular envelopes generated using GASBOR 2.3i. c, Interaction of UNC1118 with 53BP1TT characterized using ITC (left) and NMR spectroscopy (right).
For the ITC, raw titration data and integrated heat measurements are shown. The indicated Kd with associated standard deviation was determined by nonlinear least-squares analysis.
(1 picture or pasted object on this page, not shown here)

T1 sequence (Q12888 1481-1603): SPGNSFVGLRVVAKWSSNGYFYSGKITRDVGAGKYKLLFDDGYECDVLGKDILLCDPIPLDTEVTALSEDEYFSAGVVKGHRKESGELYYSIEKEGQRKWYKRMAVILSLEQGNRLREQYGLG
T2 sequence (Q12888 1481-1603): as above
Sequence of 53BP1^TT WT (Q12888 1481-1603): as above

## CC(C)c1cccc(C(=O)NCCCNC(C)(C)C)c1 [UNC3474]
53BP1^TT
  change in sedimentation coefficient of 53BP1TT: consistent with the dimerization of 53BP1^TT
53BP1^TT WT
  changes in signal positions in the 1H-15N HSQC spectrum of 53BP1TT upon titration: slow exchange on the chemical shift time scale
[1]
  Kd: 1 ± 0.3 µM
